“Also recorded” adds a separate entry of the source.
Key:
[1] = Cytotoxicity assay (Alamar Blue); format: cell-based; conditions: human, HEK293 cells, 72 h exposure, mean ± SD, at least 3 independent experiments
Method: The HEK293 cell line was obtained from the ECACC (European Collection of Authenticated Cell Cultures, cat. 85120602, Salisbury, UK). The cells were grown in monolayer culture in Dulbecco’s Modified Eagle Medium (DMEM) (PanEco, Moscow, Russia) supplemented with 2 mM of L-glutamine, 1% penicillin/streptomycin (Capricorn Scientific, Ebsdorfergrund, Germany), and 10% heat-inactivated fetal bovine serum (HyClone, Cytiva, Pasching, Austria) in a humidified atmosphere of 5% CO2 and at 37 °C (Binder, Tuttlingen, Germany). For analysis, the HEK293 cells were seeded into a 96-well plate (Corning Incorporated, Corning, NY, USA) in 100 μL of complete culture medium at a final concentration of 1 × 10^4 cells/well and cultured for 24 h for proper attachment. Subsequently, the medium was removed, and cells were exposed to the test inhibitor with different concentrations for 72 h in 100 μL of fresh complete culture medium. The sensitivity of the cells to test inhibitor molecules was detected using the vital dye Alamar Blue (Invitrogen, Carlsbad, CA, USA). The Alamar Blue assay was performed according to the procedure described by O’Brien et al.. After incubation with test inhibitor molecules, 10 μL of Alamar Blue reagent was added to each well, cell culture plates were returned to a humidified incubator, and the fluorescence was read after 3 h. The plates were exposed to an excitation wavelength of 545 nm, and the emission at 600 nm was measured with the CLARIOstar Plus (BMG Labtech, Ortenberg, Germany, Software Version 5.70 R2). To determine corresponding 50% cellular cytotoxicity (CC50) values, a four-parameter sigmoidal fit curve model (GraphPad Prism 8 software) was used to measure the data.

E. coli MG1655 = test: Growth curves of E. coli MG1655 with antibiotics, with or without LpxC inhibitors (antibiotic potentiation); format: cell-based, Escherichia coli; conditions: for Activity: combined action together with the antibiotic, marking used for QSAR; for potentiation of kanamycin (sensitivity of cells): kanamycin 0.62 μM; for potentiation of kanamycin (sensitivity of cells) / potentiation of rifampicin (sensitivity of cells): inhibitor 50 or 100 µM; for potentiation of kanamycin (sensitivity of cells) / potentiating activity with nalidixic acid (growth inhibition) / potentiation of rifampicin (sensitivity of cells): OD600 growth curves; for potentiating activity with nalidixic acid (growth inhibition): nalidixic acid 17.22 μM, inhibitor 50–100 µM; for potentiation of rifampicin (sensitivity of cells): rifampicin 6.08 μM; for Activity: key: active (1); inactive (0)
Method: (§1) Escherichia coli strain MG1655 and Pseudomonas aeruginosa strain ATCC 27853 were obtained from the American Type Culture Collection (ATCC; Rockville, MD, USA). Subculturing and inoculum preparation were prepared according to the Clinical and Laboratory Standards Institute (CLSI) recommended method, M7-A9 [42], using MHA and MHB.
Growth curves were obtained with a Bioscreen C automated growth analysis system. Cultures of E. coli MG1655 were grown overnight at 37 °C, diluted 1:100 in fresh medium, inoculated into honeycomb wells in triplicate, and grown at 37 °C with maximum shaking using the platform of the Bioscreen C instrument. […] OD600 values were recorded automatically at specified times, and the means of the triplicate cultures were plotted.

P. aeruginosa ATCC 27853 = test: MIC (broth microdilution) and growth curves of antibiotics in combination with 9c or 9d; format: cell-based, Pseudomonas aeruginosa; conditions: 24 h, broth microdilution
Method: as §1
Minimum inhibitory concentrations (MICs) for rifampicin and nalidixic acid were determined via the modified broth microdilution method in triplicate according to CLSI guidelines M7-A9 and M100-A30 [43]. The antibiotics were serially diluted twofold in 100 μL of MHB. The bacteria inoculum was 100 μL of a 1.0 × 10^6 CFU/mL dilution in MHB. MICs for antibiotics in the presence of 9c or 9d were determined with the same method.
MIC endpoints were read after 24 h of incubation with an iMark microplate absorbance reader (Bio-Rad, Hercules, CA, USA). Growth curves of P. aeruginosa ATCC 27853 in the presence of rifampicin/nalidixic acid and 9c/9d were obtained using a multifunction microplate reader, SuperMax 3100 (ShanghaiFlash, Shanghai, China). Cells were grown in triplicate at 37 °C with aeration.

Row | melting point | MIC of antibiotic alone (P. aeruginosa ATCC 27853) [µM] | SMILES | CC50 at 72 h [1] [µM] | Activity (E. coli MG1655) | potentiation of kanamycin (sensitivity of cells) (E. coli MG1655) | potentiating activity with nalidixic acid (growth inhibition) (E. coli MG1655) | potentiation of rifampicin (sensitivity of cells) (E. coli MG1655)
1 | 265.4 °C (dec.) | – | O=C(NO)c1ccc(-c2nc(-c3ccccc3)no2)cc1 [Compound 14e] | 15 ± 0.53 | 0 | – | – | –
2 | 115.8 °C (dec.) | – | Cc1cccc(-c2noc(CCC(=O)NO)n2)c1 [Compound 17d] | 21.3 ± 2.53 | – | – | – | –
3 | 204.2 °C (dec.) | – | O=C(NO)c1cccc(-c2nc(-c3c(F)cccc3F)no2)c1 [Compound 14a] | 25.5 ± 3.11 | 0 | – | – | –
4 | 197.3 °C (dec.) | – | COc1ccc(-c2nnc(C(=O)NO)o2)c(OC)c1 [Compound 30d, 5-(2,4-Dimethoxyphenyl)-N-hydroxy-1,3,4-oxadiazole-2-carboxamide] | > 600 | 0 | – | – | –
5 | 236 °C (dec.) | – | O=C(NO)c1ccc(-c2nc(-c3ccc(OC(F)(F)F)cc3)no2)cc1 [Compound 14d] | 5.28 ± 1.05 | 0 | – | – | –
6 | 149.7 °C (dec.) | – | O=C(Cc1nc(-c2c(F)cccc2F)no1)NO [Compound 9a] | 188 ± 31.2 | 0 | – | – | –
7 | 156.3 °C (dec.) | – | O=C(Cc1noc(-c2cccc(I)c2)n1)NO [Compound 23d] | 171 ± 22.9 | 0 | – | – | –
8 | 133.6 °C (dec.) | – | O=C(NO)c1nc(-c2cc(F)c(F)c(F)c2)no1 [Compound 4c] | > 500 | 0 | – | – | –
9 | 274.9 °C (dec.) | – | O=C(NO)c1nnc(-c2cccc(I)c2)o1 [Compound 30b, N-Hydroxy-5-(3-iodophenyl)-1,3,4-oxadiazole-2-carboxamide] | > 200 | 1 | not to kanamycin | inhibited bacterial growth less effectively; also recorded: weak potentiating activity | significantly increased the sensitivity
10 | 181.3 °C (dec.) | – | O=C(NO)c1nc(-c2ccc(I)cc2)no1 [Compound 4f] | 367 ± 53.9 | 0 | – | – | –
11 | 174 °C (dec.) | – | O=C(Cc1noc(-c2ccc(Cl)cc2)n1)NO [Compound 23a] | 112 ± 18.6 | 1 | significantly increased the sensitivity | inhibited bacterial growth less effectively; also recorded: less effective | significantly increased the sensitivity
12 | 99 °C (dec.) | – | O=C(CCc1nc(-c2c(F)cccc2F)no1)NO [Compound 17a] | 30.8 ± 3.71 | 0 | – | – | –
13 | – | 4.86 | CO[C@H]1/C=C/O[C@@]2(C)Oc3c(C)c(O)c4c(O)c(c(/C=N/N5CCN(C)CC5)c(O)c4c3C2=O)NC(=O)/C(C)=C\C=C\[C@H](C)[C@H](O)[C@@H](C)[C@@H](O)[C@@H](C)[C@H](OC(C)=O)[C@@H]1C [rifampicin, reference compound] | – | – | – | – | –
14 | 106 °C (dec.) | – | Cc1cccc(-c2noc(C(=O)NO)n2)c1 [Compound 4d] | 457 ± 18.2 | 0 | – | – | –
15 | 259.6 °C (dec.) | – | Cc1cc(F)ccc1-c1nnc(C(=O)NO)o1 [Compound 30c, 5-(4-Fluoro-2-methylphenyl)-N-hydroxy-1,3,4-oxadiazole-2-carboxamide] | > 200 | 0 | – | – | –
16 | – | 17.22 | CCn1cc(C(=O)O)c(=O)c2ccc(C)nc21 [nalidixic acid, reference compound] | – | – | – | – | –
17 | 120 °C (dec.) | – | O=C(CCc1nc(-c2ccc(OC(F)(F)F)cc2)no1)NO [Compound 17b] | 42.4 ± 4.58 | 0 | – | – | –
18 | 211.6 °C (dec.) | – | O=C(Cc1noc(-c2ccc(I)cc2)n1)NO [Compound 23b] | 169 ± 22.5 | 0 | – | – | –
19 | 166.7 °C (dec.) | – | COc1cccc(-c2nnc(C(=O)NO)o2)c1OC [Compound 30e, 5-(2,3-Dimethoxyphenyl)-N-hydroxy-1,3,4-oxadiazole-2-carboxamide] | 770 ± 58.4 | 0 | – | – | –
20 | 199.3 °C (dec.) | – | O=C(NO)c1cccc(-c2noc(-c3ccccc3F)n2)c1 [Compound 26] | 21.7 ± 3.43 | 0 | – | – | –
21 | 117.4 °C (dec.) | – | O=C(NO)c1nc(-c2c(F)cccc2F)no1 [Compound 4a] | > 500 | 0 | – | – | –
22 | 122 °C (dec.) | – | O=C(CCc1nc(-c2cc(F)c(F)c(F)c2)no1)NO [Compound 17c] | 59.2 ± 7.27 | 0 | – | – | –
23 | 146 °C (dec.) | – | O=C(Cc1noc(-c2cccc(Cl)c2)n1)NO [Compound 23c] | 143 ± 3.84 | 1 | significantly increased the sensitivity | inhibited bacterial growth less effectively; also recorded: less effective | significantly increased the sensitivity
24 | 130.7 °C (dec.) | – | COc1ccc(-c2nnc(C(=O)NO)o2)cc1OC [Compound 30f, 5-(3,4-Dimethoxyphenyl)-N-hydroxy-1,3,4-oxadiazole-2-carboxamide] | 478 ± 50.5 | 0 | – | – | –
25 | 144 °C (dec.) | – | COc1ccc(-c2noc(C(=O)NO)n2)cc1 [Compound 4e] | > 250 | 0 | – | – | –
26 | 184.4 °C (dec.) | – | O=C(NO)c1nnc(-c2ccc(I)cc2)o1 [Compound 30a, N-Hydroxy-5-(4-iodophenyl)-1,3,4-oxadiazole-2-carboxamide] | 62.2 ± 9.88 | 0 | – | – | –

Row | SMILES | melting point | MIC of antibiotic alone (P. aeruginosa ATCC 27853) [µM] | CC50 at 72 h [1] [µM] | Activity (E. coli MG1655) | potentiation of kanamycin (sensitivity of cells) (E. coli MG1655) | potentiating activity with nalidixic acid (growth inhibition) (E. coli MG1655) | potentiation of rifampicin (sensitivity of cells) (E. coli MG1655)
27 | O=C(NO)c1nc(-c2ccc(OC(F)(F)F)cc2)no1 [Compound 4b] | 108.6 °C (dec.) | – | 380 ± 10.2 | 0 | – | – | –
28 | O=C(NO)c1cccc(-c2nc(-c3ccc(OC(F)(F)F)cc3)no2)c1 [Compound 14b] | 191 °C (dec.) | – | 6.39 ± 1.32 | 0 | – | – | –
29 | O=C(Cc1nc(-c2ccc(OC(F)(F)F)cc2)no1)NO [Compound 9b] | 177 °C (dec.) | – | 108 ± 23.9 | 0 | – | – | –
30 | O=C(NO)c1cccc(-c2nc(-c3cc(F)c(F)c(F)c3)no2)c1 [Compound 14c] | 188.5 °C (dec.) | – | 4.53 ± 1.22 | 0 | – | – | –
